According to patent US12264175B2, “Compositions and methods for capping RNAS” (Verve Therapeutics, Inc., priority 2020, dated 2025):

Experiments:
[1] = target: T7 RNA polymerase (Escherichia phage T7, UniProt P00573); assay: mRNA capping efficiency at adjusted 5′ end initiator-to-NTP molar ratio; assay type: biochemical; conditions: FIG. 4
Excerpt: The amount of capped mRNA produced in an IVT reaction is directly proportional to the ratio of cap to NTPs in the reaction mixture (Stepinski, J. et al., RNA. 2006, 7, 1486-1495). The 5′ end initiator-to-NTP ratio in an IVT reaction impacts the amount of mRNA that becomes capped primarily because cap can compete with NTPs for insertion at the 5′ end of mRNA. A typical initiator-to-NTP ratio for a dinucleotide cap structure is 4:1 and a typical molar initiator-to-NTP ratio for a trinucleotide cap structure is 1:1; where NTP represents either GTP, ATP, CTP, UTP, or modified NTPs such as N1-methyl pseudouridine. At both a 4:1 ratio for a dinucleotide cap and 1:1 ratio for a trinucleotide cap, the resultant mRNA will have a mixture of transcripts of which at least 80% are capped at the 5′ end and up to 20% are uncapped, this is also described as a capping efficiency of 80%. Capping efficiency is the measured amount of capped mRNA divided by the total amount of capped mRNA plus uncapped mRNA. Therefore, trinucleotide caps can be considered more efficient capping compounds than dinucleotide caps since less input cap is required to produce a final mRNA product that contains a similar amount of capped 5′ ends. The ability of trinucleotide caps to produce a high (>90%) capping efficiency at a lower initiator-to-NTP ratio than dinucleotide caps, in some instances, can be attributed to the increased affinity of a trinucleotide cap for the DNA template. In some cases, the optimal cap-to-NTP ratio may vary with the composition of the cap structure, wherein modification of cap structures may affect capping efficiency. […]
The amount of capped mRNA relative to the total amount of mRNA that is present, i.e. capping efficiency, can be measured by numerous methods well known in the art. […]

[2] = test system: primary human liver hepatocytes (hPH); assay: ABE protein levels by ELISA after mRNA transfection of primary human hepatocytes; assay type: cell-based; conditions: ABE mRNA transfected to hPH cells, FIG. 6
Description: Primary human liver hepatocytes (hPH), primary cynomolgus liver hepatocytes (cPH), or primary mouse liver hepatocytes (mPH) are cultured per the manufacturer's protocol. In brief, the cells are thawed and resuspended in hepatocyte thawing medium followed by centrifugation at 100 g for 10 min at 4° C. The supernatant is discarded, and the pelleted cells resuspended in hepatocyte plating medium. Each vial contains ˜5 million cells that are used for plating one 24-well plate. Plated cells are allowed to settle and adhere for 4-6 h in a tissue culture incubator at 37° C. under 5% CO2 atmosphere. After incubation, cells are checked for monolayer formation. The incubating media is then replaced with fresh hepatocyte maintenance media The cells thus are ready for transfection using a transfection agent such as MessengerMAX. Solution A: desired amount of single guide RNA (sgRNA) is mixed with 1:1 wt ratio of mRNA in OptiMEM. Solution B: MessengerMAX in OptiMEM. After mixing solutions A and B, the mixture is incubated at room temperature for 20 minutes, and then the incubated solution is added dropwise to each well of cells. The cells are then allowed to remain at 37° C. for 3 days. […] For example, mRNA with 5′ end region motifs, 1007a and 1107a, were transfected to hPH cells as described above, the cells were lysed, and ABE protein levels were measured by ELISA. […]

Sequence of T7 RNA polymerase (P00573 whole entry): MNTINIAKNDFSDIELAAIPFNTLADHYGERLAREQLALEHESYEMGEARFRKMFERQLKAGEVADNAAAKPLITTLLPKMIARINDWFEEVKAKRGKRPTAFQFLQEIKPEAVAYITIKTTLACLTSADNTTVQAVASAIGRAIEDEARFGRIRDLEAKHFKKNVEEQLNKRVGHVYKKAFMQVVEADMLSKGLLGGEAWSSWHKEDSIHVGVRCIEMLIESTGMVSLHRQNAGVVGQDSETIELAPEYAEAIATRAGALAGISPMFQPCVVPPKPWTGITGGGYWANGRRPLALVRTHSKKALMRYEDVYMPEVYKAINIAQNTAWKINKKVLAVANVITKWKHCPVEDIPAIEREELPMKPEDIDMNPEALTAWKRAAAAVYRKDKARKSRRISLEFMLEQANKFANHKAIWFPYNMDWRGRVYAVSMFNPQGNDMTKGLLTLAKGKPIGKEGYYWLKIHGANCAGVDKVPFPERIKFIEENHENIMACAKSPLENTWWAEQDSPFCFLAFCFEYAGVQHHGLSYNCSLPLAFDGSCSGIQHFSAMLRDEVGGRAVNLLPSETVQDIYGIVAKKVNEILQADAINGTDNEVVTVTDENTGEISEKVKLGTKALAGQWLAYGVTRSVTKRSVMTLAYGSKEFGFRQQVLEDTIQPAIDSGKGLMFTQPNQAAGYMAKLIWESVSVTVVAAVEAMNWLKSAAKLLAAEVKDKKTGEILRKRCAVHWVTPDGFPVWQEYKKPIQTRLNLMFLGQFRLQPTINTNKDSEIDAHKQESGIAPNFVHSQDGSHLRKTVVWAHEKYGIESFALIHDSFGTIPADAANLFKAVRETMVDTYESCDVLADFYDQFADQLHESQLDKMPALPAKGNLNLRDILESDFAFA

Compound: COC1C(OP([O-])(=S)OCC2OC(n3cnc4c(=O)[nH]c(N)nc43)C(O)C2O)C(COP(=O)(O)OP(=O)(O)OP(=O)(O)OCC2OC(n3c[n+](C)c4c(=O)[nH]c(N)nc43)C(O)C2O)OC1n1cnc2c(N)ncnc21 (stereo not drawn) [1007a, m^7G(ppp)Am(ps)G]
- capping efficiency ([1]; initiator-to-NTP ratio ranging from 1:1 down to 1:2.5): > 90%
- capping efficiency compared to mRNA capped with 1002a ([1]; similar production conditions): similar
- ABE protein levels as compared to mRNA with 5′ end region motif 1002a [2]: similar
